These are literature values, as cited in publication PMC3411352 (Biopolymers, 2011).

Broadly, the Ki is the equilibrium dissociation constant of an inhibitor or competing ligand from its target.

Data set [1] concerns the target T1, rat κ opioid receptors (Rattus norvegicus, UniProt P34975). The settings on record: relative to Dyn A (1-13)NH2 (0% control).
Data set [2] has as its target T1, rat κ opioid receptors. To be noted: for Ki: read-out: Ki ± SEM κ, κ opioid receptors.
Data set [3] addresses κ opioid receptors.
A further data set has as its target rat μ opioid receptors (Rattus norvegicus, UniProt P33535). To be noted: read-out: Ki ± SEM μ.
Data set [4] addresses κ opioid receptors. The settings on record: selectivity.

Several values for one entry are separate records, joined by “and”; a condition that tells them apart may be missing. Equal values may be shown once. Read-outs that look alike come from different tables or passages of the source.

T1 sequence (P34975 whole entry): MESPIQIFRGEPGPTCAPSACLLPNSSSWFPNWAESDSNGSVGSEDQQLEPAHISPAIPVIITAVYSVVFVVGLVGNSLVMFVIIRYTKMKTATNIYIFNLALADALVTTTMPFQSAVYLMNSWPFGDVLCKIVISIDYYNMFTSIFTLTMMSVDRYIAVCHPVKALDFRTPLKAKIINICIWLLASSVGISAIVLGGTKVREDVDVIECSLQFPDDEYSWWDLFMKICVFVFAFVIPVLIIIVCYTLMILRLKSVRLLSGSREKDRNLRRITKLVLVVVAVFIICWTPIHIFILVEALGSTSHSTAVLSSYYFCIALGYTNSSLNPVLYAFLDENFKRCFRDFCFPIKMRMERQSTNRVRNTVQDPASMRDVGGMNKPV
Sequence of rat μ opioid receptors (P33535 whole entry): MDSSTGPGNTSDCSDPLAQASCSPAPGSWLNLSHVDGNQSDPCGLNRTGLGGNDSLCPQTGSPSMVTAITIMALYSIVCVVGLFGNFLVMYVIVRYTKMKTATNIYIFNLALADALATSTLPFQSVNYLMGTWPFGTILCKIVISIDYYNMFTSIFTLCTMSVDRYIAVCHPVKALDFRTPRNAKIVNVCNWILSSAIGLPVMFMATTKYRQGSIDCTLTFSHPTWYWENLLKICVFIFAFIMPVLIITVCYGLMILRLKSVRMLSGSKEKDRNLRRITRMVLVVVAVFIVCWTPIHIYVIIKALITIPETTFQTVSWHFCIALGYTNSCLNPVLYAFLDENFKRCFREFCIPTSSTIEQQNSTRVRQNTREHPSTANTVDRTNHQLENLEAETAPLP

Turning to “Ac[Phe^1,2,3,Arg^4,D-Ala^8]Dyn A(1-11)-NH2 [Compound 1]”, on rat κ opioid receptors [1], the “AC % control @ 10 μM” value is listed as 88 ± 8 % control. For the same substance, at rat κ opioid receptors [2], the Ki was 10 ± 3 nM.
As for [(2S)-Mdp^1]Dyn A-(1-11)NH2 [Dynantin], on κ opioid receptors [3] (read-out: Ki (κ)), the Ki is 0.82 nM. For the same substance, the “Ki ratio (κ/μ/δ)” value at κ opioid receptors [3] (selectivity) is 1/259/198.
For the substance [NMePhe^1]arodyn [Compound 2], the Ki at rat μ opioid receptors was 5060 ± 790 nM; on rat κ opioid receptors [2] it was 4.6 nM and 4.56 nM. On rat κ opioid receptors [1], the “AC % control @ 10 μM” value is listed as 86 ± 1 % control. Further, the “Ki ratio (μ/κ)” value on rat κ opioid receptors [2] (selectivity κ over μ) is 1100.
In the case of [Pro^3]Dyn A-(1-11)NH2, the “Ki ratio (κ/μ/δ)” value on κ opioid receptors [4] is 1/2110/3260.
